Measured values taken from US9139574B2, “Tumor targeted drug combretastatin A4 derivative” (Nanjing Sanhome Pharmaceutical Co., Ltd., priority 2011, dated 2015).

How the values were obtained:
[1] = system: HCT-116; assay: MTT assay of anti-tumor activity, HCT-116; type: cell-based; conditions: HCT-116 cells
Protocol: (§1) The cells were digested and counted. The cell suspension was prepared in a concentration of 5×10^4 cells/ml. 100 μL of the cell suspension per well was added into 96-well plates (5×10^3 cells per well). The 96-well plates were placed in a 5% CO2 incubator at 37° C. for 24 hours. The drugs were diluted with the complete medium to the desired concentrations. 100 μL of the corresponding drug-containing medium was added into each well. Negative control group, vehicle control group and positive control group were set. The 96-well plates were placed in 5% CO2 incubator at 37° C. for 72 hours. The 96-well plates were subjected to a MTT assay, and measured OD value at λ=490 nm. The measurement procedure comprises adding 20 μL MTT (5 mg/ml) for each well, incubating for 4 hours in an incubator, discarding the medium, dissolving by adding 150 μL DMSO into each well, mixing uniformly by rocking gently for 10 minutes on a shaker, reading OD value of each well in a microplate reader at λ=490 nm. The inhibition rate was calculated, the results were recorded, and the anti-tumor activity was assessed.

[2] = system: MCF-7; assay: MTT assay of anti-tumor activity, MCF-7; type: cell-based
Protocol: as §1

[3] = system: tubulin; assay: Inhibitory activity on tubulin polymerization (kit BK011P, Cytoskeleton); type: biochemical; conditions: 37° C., 60 minutes, fluorescence, Vmax
Protocol: The compounds were formulated into six different concentrations (0.03, 0.3, 0.9, 3, 9, 30 μM). The tubulin polymerization assay kit (Cat. # BK011P, Cytoskeleton) was used for testing. The samples were incubated at 37° C. for 60 minutes, and then fluorescence was collected using Gemini EM Fluorescence Microplate Reader collected at 410-460 nm. Vmax was calculated using SOFTMAX® PRO microplate data acquisition & analysis software. The tubulin inhibition (IC50) of the compound was calculated using GRAPHPAD PRISM® v5.01 graphing and statistics software.

[4] = system: DU-145; assay: MTT assay of anti-tumor activity, DU-145; type: cell-based; conditions: DU-145 cells
Protocol: as §1

[5] = system: NCI-H460; assay: MTT assay of anti-tumor activity, NCI-H460; type: cell-based; conditions: NCI-H460 cells
Protocol: as §1

[6] = system: K562; assay: MTT assay of anti-tumor activity, K562; type: cell-based; conditions: K562 cells
Protocol: as §1

[7] = Homo sapiens, MCF7, 72 h, MCF-7 cells

Row | SMILES | IC50 ([1]; Homo sapiens, HCT-116, 72 h) | IC50 [2, 7] | IC50 [3] | IC50 ([4]; Homo sapiens, DU-145, 72 h) | IC50 ([5]; Homo sapiens, NCI-H460, 72 h) | IC50 ([6]; Homo sapiens, K562, 72 h) | melting point | further results
1 | COc1ccc(/C=C\c2cc(OC)c(OC)c(OC)c2)cc1O [CA4, cis-1-(3,4,5-trimethoxyphenyl)-2-(3′-hydroxy-4′-methoxyphenyl)ethylene, reference compound] | 43 nM | 5.5 nM | […] | 7.2 nM | 5.6 nM | 5.2 nM | – | –
2 | COc1ccc(-c2c(-c3cc(OC)c(OC)c(OC)c3)ncn2-c2ccccc2)cc1O [Compound C087, 5-(3-hydroxy-4-methoxyphenyl)-4-(3,4,5-trimethoxyphenyl)-1-phenylimidazole] | – | – | – | – | – | – | 176 to 177 °C | IC50 ([1]; Homo sapiens, 72 hours): 77 nM; IC50 ([2]; Homo sapiens, MCF7, MCF-7 cells, 72 hours): 6.2 nM; IC50 ([4]; Homo sapiens, 72 hours): > 300 nM; IC50 ([5]; Homo sapiens, 72 hours): 153 nM; IC50 ([6]; Homo sapiens, 72 hours): 4.6 nM
3 | COc1ccc(-c2c(-c3cc(OC)c(OC)c(OC)c3)ncn2-c2cc(OC)c(OC)c(OC)c2)cc1O [Compound C105, 5-(3-hydroxy-4-methoxyphenyl)-4-(3,4,5-trimethoxyphenyl)-1-(3,4,5-trimethoxyphenyl)imidazole] | 151 nM | 21 nM | – | – | 21 nM | 8.9 nM | – | –
4 | COc1cc(-c2ncn(-c3cc(OC)c(OC)c(OC)c3)c2-c2ccc(N(C)C)cc2)cc(OC)c1OC [Compound C106, 5-(4-dimethylaminophenyl)-4-(3,4,5-trimethoxyphenyl)-1-(3,4,5-trimethoxyphenyl)imidazole] | 136 nM | 7.3 nM | – | 92.3 nM | > 300 nM | 3.2 nM | 168.8 to 170.9 °C | –
5 | COc1cc(OC)cc(-c2ncoc2-c2ccc(OC)c(O)c2)c1 [Compound C110, 4-(3,5-dimethoxyphenyl)-5-(3-hydroxy-4-methoxyphenyl)oxazole] | 71 nM | 210 nM | 470 nM | 2.5 nM | 33 nM | 49 nM | 149.9 to 151.6 °C | –
6 | COc1cc(OC)cc(-c2ncoc2-c2ccc(OC)c(N)c2)c1 [Compound C115, 4-(3,5-dimethoxyphenyl)-5-(3-amino-4-methoxyphenyl)oxazole] | 335 nM | 101 nM | 460 nM | > 300 nM | 52 nM | 5.7 nM | – | –
7 | COc1cc(OC)cc(-c2ncoc2-c2ccc(OC)c(O)c2O)c1 [Compound C116, 4-(3,5-dimethoxyphenyl)-5-(2,3-dihydroxy-4-methoxyphenyl)oxazole] | – | – | 530 nM | – | – | – | 178.6 to 180.4 °C | –
8 | COc1cc(OC)cc(-c2ncoc2-c2ccc(OC)c(O)c2F)c1 [Compound C117, 4-(3,5-dimethoxyphenyl)-5-(2-fluoro-3-hydroxy-4-methoxyphenyl)oxazole] | > 300 nM | 88.9 nM | – | 130 nM | 10.2 nM | 8.5 nM | 168.1 to 172.4 °C | –
9 | COc1cc(OC)cc(-c2nc[nH]c2-c2ccc(OC)c(O)c2)c1 [Compound C118, 4-(3,5-dimethoxyphenyl)-5-(3-hydroxy-4-methoxyphenyl)-imidazole] | 40.5 nM | 46.3 nM | 490 nM | – | 14.3 nM | 2.8 nM | – | –
10 | COc1cc(OC)cc(-c2ncoc2-c2ccc(OC)c(N)c2N)c1 [Compound C121, 4-(3,5-dimethoxyphenyl)-5-(2,3-diamino-4-methoxyphenyl)oxazole] | – | – | 2350 nM | – | – | – | 132.6 to 134 °C | –
11 | COc1cc(OC)cc(-c2ncn(C)c2-c2scc3c2OCCO3)c1 [Compound C238, N-methyl-4-(3,5-dimethoxyphenyl)-5-[(3,4-ethylenedioxyl)thienyl]imidazole] | – | – | – | – | – | – | – | IC50 ([1]; 72 hours): 230 nM; IC50 ([2]; MCF-7 cells, 72 hours): 6.1 nM; IC50 ([4]; 72 hours): 150 nM; IC50 ([5]; 72 hours): > 300 nM; IC50 ([6]; 72 hours): 11.2 nM
12 | COc1cc(-c2ncn(CCO)c2-c2ccc(N(CCCl)CCCl)cc2)cc(OC)c1OC [Compound C248] | – | – | – | – | – | – | – | IC50 ([1]; 72 hours): 312 nM; IC50 ([2]; MCF-7 cells, 72 hours): 6.9 nM; IC50 ([4]; 72 hours): > 300 nM; IC50 ([5]; 72 hours): 10.3 nM; IC50 ([6]; 72 hours): 11.2 nM
13 | COc1cc(OC)cc(-c2ncoc2-c2ccc3c(c2)NC(=O)CO3)c1 [Compound C253, 4-(3,5-dimethoxyphenyl)-5-[6-(3-oxobenzomorpholiny)]oxazole] | – | – | – | – | – | – | – | IC50 ([1]; 72 hours): 121 nM; IC50 ([2]; MCF-7 cells, 72 hours): 6.4 nM; IC50 ([4]; 72 hours): 76.2 nM; IC50 ([5]; 72 hours): 26.4 nM; IC50 ([6]; 72 hours): 310 nM

Further lines, with some results ahead:

Row | IC50 ([1]; Homo sapiens, HCT-116, 72 h) | IC50 [2, 7] | IC50 [3] | IC50 ([4]; Homo sapiens, DU-145, 72 h) | IC50 ([5]; Homo sapiens, NCI-H460, 72 h) | IC50 ([6]; Homo sapiens, K562, 72 h) | melting point | SMILES | further results
14 | > 300 nM | 1.2 nM | 660 nM | > 300 nM | – | 7.2 nM | 149.9 to 151.6 °C | CNc1ccc(-c2ocnc2-c2cc(OC)cc(OC)c2)cc1O [Compound C123, 4-(3,5-dimethoxyphenyl)-5-(3-hydroxy-4-methylaminophenyl)oxazole] | IC50 ([1]; 72 hours): 189 nM
15 | 33 nM | 4.3 nM | 1040 nM | 280 nM | > 300 nM | 6.4 nM | – | COc1cc(OC)cc(-c2ncoc2-c2ccc(OC)c(O)c2N)c1 [Compound C124, 4-(3,5-dimethoxyphenyl)-5-(2-amino-3-hydroxy-4-methoxyphenyl)oxazole] | –
16 | – | – | 660 nM | – | – | – | – | COc1cc(OC)cc(-c2nc[nH]c2-c2ccc(OC)c(N)c2)c1 [Compound C129, 4-(3,5-dimethoxyphenyl)-5-(3-amino-4-methoxyphenyl)imidazole] | –
17 | 25 nM | – | – | – | 350 nM | 23 nM | – | COc1cc(OC)cc(-c2nc[nH]c2-c2ccc(N(C)C)cc2)c1 [Compound C130, 4-(3,5-dimethoxyphenyl)-5-(4-dimethylaminophenyl)imidazole] | IC50 ([5]; 72 hours): > 300 nM; IC50 ([6]; 72 hours): 21.3 nM
18 | 52 nM | 7.8 nM | – | > 300 nM | 90.1 nM | 4.5 nM | – | COc1cc(OC)cc(-c2ncn(C)c2-c2ccc(OC(F)(F)F)c(N)c2)c1 [Compound C132, 4-(3,5-dimethoxyphenyl)-5-(3-amino-4-trifluoromethoxyphenyl)-1-methylimidazole] | –
19 | 68 nM | 5.6 nM | – | 161 nM | 76.3 nM | 6.9 nM | 99.2 to 101.3 °C | COc1cc(OC)cc(-c2ncn(C)c2-c2ccc(OC(F)F)c(N)c2)c1 [Compound C135, 4-(3,5-dimethoxyphenyl)-5-(3-amino-4-difluoromethoxyphenyl)-1-methylimidazole] | –
20 | 416 nM | 11.3 nM | – | 4.1 nM | 62 nM | 4.2 nM | – | COc1cc(OC)cc(-c2ncoc2-c2ccc(OC(F)(F)F)c(O)c2)c1 [Compound C142, 4-(3,5-dimethoxyphenyl)-5-(3-hydroxy-4-trifluoromethoxyphenyl)oxazole] | –
21 | 289 nM | 9.3 nM | – | > 300 nM | – | 6.1 nM | – | COc1cc(OC)cc(-c2nc[nH]c2-c2ccc(OC)c(N)c2O)c1 [Compound C146, 4-(3,5-dimethoxyphenyl)-5-(2-hydroxy-3-amino-4-methoxyphenyl)imidazole] | –
22 | > 300 nM | 8.9 nM | – | 123 nM | 89.3 nM | 7.6 nM | – | COc1cc(OC)cc(-c2nc[nH]c2-c2ccc(OC)c(O)c2N)c1 [Compound C147, 4-(3,5-dimethoxyphenyl)-5-(2-amino-3-hydroxy-4-methoxyphenyl)imidazole] | –
23 | 34 nM | 10.2 nM | – | – | > 300 nM | 6.8 nM | – | COc1cc(OC)cc(-c2nc[nH]c2-c2ccc(OC(F)(F)F)c(N)c2)c1 [Compound C152, 4-(3,5-dimethoxyphenyl)-5-(3-amino-4-trifluoromethoxyphenyl)imidazole] | –
24 | 460 nM | – | 1570 nM | 10.3 nM | > 300 nM | 7.6 nM | – | COc1cc(OC)cc(-c2ncn(CCO)c2-c2ccc(OC)c(F)c2)c1 [Compound C256, N-hydroxyethyl-4-(3,5-dimethoxyphenyl)-5-(3-fluoro-4-methoxyphenyl)imidazole] | –
25 | – | – | 860 nM | – | – | – | – | CNc1ccc(-c2ocnc2-c2cc(OC)cc(OC)c2)cc1F [Compound C264, 4-(3,5-dimethoxyphenyl)-5-(3-fluoro-4-methylaminophenyl)oxazole] | –
